Read-outs that look alike come from different tables or passages of the source.
Target: T1, PD brain-derived alpha-synuclein aggregates (Homo sapiens, UniProt P37840)
T1 construct: PD brain-derived alpha-synuclein aggregates were spotted onto microarray slides; from tissue; host or cells: human Parkinson's disease patient brain
Experiment: Micro-radiobinding competition assay for the determination of binding affinity
Details: for inhibition at 0.1 µM: read-out: Competition at 100 nM (%); for inhibition at 1 µM: read-out: Competition at 1 μM (%)
Protocol: Micro-Radiobinding Competition Assay for the Determination of Binding Affinity
PD brain-derived alpha-synuclein aggregates were spotted onto microarray slides. The slides were incubated with tritiated reference alpha-synuclein ligand at 20 nM or 30 nM and the example compounds (non-radiolabelled) at 1 μM and 100 nM. In some cases, the non-radiolabelled example compounds were further assessed for a range of different concentrations, varying from 0.05 nM to 2 μM. After incubation, slides were washed and scanned by a real-time autoradiography system (BeaQuant, ai4R). Quantification of the signal was performed by using the Beamage image analysis software (ai4R). Non-specific signal was determined with an excess of non-radiolabelled reference alpha-synuclein ligand (2 μM) and specific binding was calculated by subtracting the non-specific signal from the total signal. Competition was calculated as percent, where 0% was defined as the specific binding in the presence of vehicle and 100% as the values obtained in the presence of excess of the non-radiolabelled reference alpha-synuclein ligand. Ki values were calculated in GraphPad Prism7 by applying a nonlinear regression curve fit using a one site, specific binding model. All measurements were performed with at least two technical replicates.
Table 4: Assessment of binding affinity by micro-radiobinding competition assay on human PD brain-derived alpha-synuclein aggregates.

[1] = non-radiolabelled example compound at 100 nM, competition with tritiated reference alpha-synuclein ligand (20 nM or 30 nM), 100% = excess non-radiolabelled reference ligand
[2] = non-radiolabelled example compound at 1 μM, competition with tritiated reference alpha-synuclein ligand (20 nM or 30 nM), 100% = excess non-radiolabelled reference ligand

inhibition at 0.1 µM [1]	inhibition at 1 µM [2]	Structure (SMILES)	further results
8%	76%	Cn1cc(N2Cc3nn(-c4ccc(N5CC[C@H](F)C5)nn4)cc3C2=O)cn1 [Example 26, (S)-2-(6-(3-fluoropyrrolidin-1-yl)pyridazin-3-yl)-5-(1-methyl-1H-pyrazol-4-yl)-5,6-dihydropyrrolo[3,4-c]pyrazol-4(2H)-one]	
		O=C1c2cn(-c3cnc(N4CC[C@H](F)C4)cn3)nc2CN1c1cncs1 [Example 12, (S)-2-(5-(3-fluoropyrrolidin-1-yl)pyrazin-2-yl)-5-(thiazol-5-yl)-5,6-dihydropyrrolo[3,4-c]pyrazol-4(2H)-one]	inhibition at 0.1 µM: 50%
39%	67%	O=C1c2cn(-c3cnc(N4CCCC(F)CC4)cn3)nc2CN1c1cccnc1 (centres unmarked) [Example 15, 2-(5-(4-fluoroazepan-1-yl)pyrazin-2-yl)-5-(pyridin-3-yl)-5,6-dihydropyrrolo[3,4-c]pyrazol-4(2H)-one]	
		Cl.O=C1c2cn(-c3cnc(N4CC[C@@H](F)C4)nc3)nc2CN1c1cccnc1 [Example 37, 2-2-[(3R)-3-fluoropyrrolidin-1-yl]pyrimidin-5-yl-5-(pyridin-3-yl)-2H,4H,5H,6H-pyrrolo[3,4-c]pyrazol-4-one hydrochloride]	Ki (concentration range 0.05 nM to 2 μM, nonlinear regression, one site specific binding model): 356 nM; Competition at 100 nM (%) [1]: 32%; Competition at 1 μM (%) [2]: 78%
